Data reported in ChEMBL document CHEMBL1155072, “Urotensin-II receptor antagonists: synthesis and SAR of N-cyclic azaalkyl benzamides” (Bioorg Med Chem Lett, 2008).

Legend:
[1] = target: T1, Urotensin-2 receptor (Homo sapiens, UniProt Q9UKP6); assay: Displacement of [I125]hU2 from human recombinant urotensin 2 receptor expressed in HEK293 cells; type: cell-based
T1 sequence (Q9UKP6 whole entry): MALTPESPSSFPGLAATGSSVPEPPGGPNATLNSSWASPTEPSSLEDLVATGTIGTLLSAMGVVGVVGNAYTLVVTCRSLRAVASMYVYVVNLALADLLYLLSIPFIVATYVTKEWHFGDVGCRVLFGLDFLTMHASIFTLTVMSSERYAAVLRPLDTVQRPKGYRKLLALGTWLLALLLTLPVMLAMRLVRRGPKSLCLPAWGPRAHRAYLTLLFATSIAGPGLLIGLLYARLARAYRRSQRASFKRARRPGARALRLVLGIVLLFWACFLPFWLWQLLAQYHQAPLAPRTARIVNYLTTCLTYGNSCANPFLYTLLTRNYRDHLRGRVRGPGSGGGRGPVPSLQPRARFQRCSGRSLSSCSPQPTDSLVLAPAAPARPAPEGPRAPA

[2] = target: T1, Urotensin-2 receptor; assay: Antagonist activity at human recombinant urotensin 2 receptor expressed in HEK293 cells assessed as inhibition of urotensin 2-induced calcium mobilization by FLIPR assay; type: functional, cell-based
[3] = target: 5-hydroxytryptamine receptor 6 (Homo sapiens, UniProt P50406); assay: Binding affinity to 5HT6 receptor
Sequence of 5-hydroxytryptamine receptor 6 (P50406 whole entry): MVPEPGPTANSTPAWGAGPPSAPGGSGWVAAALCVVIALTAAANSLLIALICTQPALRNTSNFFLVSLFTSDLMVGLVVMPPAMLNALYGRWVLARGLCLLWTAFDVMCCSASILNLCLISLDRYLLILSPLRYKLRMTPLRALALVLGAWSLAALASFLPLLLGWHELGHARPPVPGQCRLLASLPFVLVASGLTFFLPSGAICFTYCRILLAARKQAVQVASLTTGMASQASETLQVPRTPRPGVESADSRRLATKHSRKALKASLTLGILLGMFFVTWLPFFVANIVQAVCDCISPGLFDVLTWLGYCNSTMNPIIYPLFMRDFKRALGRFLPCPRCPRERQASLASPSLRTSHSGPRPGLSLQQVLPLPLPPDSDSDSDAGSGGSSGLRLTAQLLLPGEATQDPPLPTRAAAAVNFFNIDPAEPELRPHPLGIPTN

[4] = target: T2, 5-hydroxytryptamine receptor 1A (Homo sapiens, UniProt P08908); assay: Binding affinity to 5HT1A receptor
T2 sequence (P08908 whole entry): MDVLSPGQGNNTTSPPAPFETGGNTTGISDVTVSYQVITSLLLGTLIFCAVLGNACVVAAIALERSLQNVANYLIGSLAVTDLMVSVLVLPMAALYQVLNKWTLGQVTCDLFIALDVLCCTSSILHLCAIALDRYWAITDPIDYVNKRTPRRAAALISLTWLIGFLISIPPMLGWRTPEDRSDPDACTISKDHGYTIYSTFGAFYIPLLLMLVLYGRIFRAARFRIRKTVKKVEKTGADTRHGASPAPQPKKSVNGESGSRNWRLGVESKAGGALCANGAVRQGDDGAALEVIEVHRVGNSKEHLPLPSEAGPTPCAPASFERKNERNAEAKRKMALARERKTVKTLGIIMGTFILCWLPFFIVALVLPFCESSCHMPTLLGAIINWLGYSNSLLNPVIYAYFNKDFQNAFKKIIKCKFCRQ

[5] = target: 5-hydroxytryptamine receptor 1E (Homo sapiens, UniProt P28566); assay: Binding affinity to 5HT1E receptor
Sequence of 5-hydroxytryptamine receptor 1E (P28566 whole entry): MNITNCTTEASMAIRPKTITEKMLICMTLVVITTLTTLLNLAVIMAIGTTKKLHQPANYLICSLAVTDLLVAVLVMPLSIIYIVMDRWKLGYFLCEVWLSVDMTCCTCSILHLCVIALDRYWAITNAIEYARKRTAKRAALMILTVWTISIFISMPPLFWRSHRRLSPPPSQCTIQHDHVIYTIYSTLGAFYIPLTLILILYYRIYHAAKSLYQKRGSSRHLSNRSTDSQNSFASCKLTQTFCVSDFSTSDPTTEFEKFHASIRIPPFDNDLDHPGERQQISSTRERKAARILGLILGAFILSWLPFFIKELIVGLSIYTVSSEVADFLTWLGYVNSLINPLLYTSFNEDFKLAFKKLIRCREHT

[6] = target: Beta-2 adrenergic receptor (Homo sapiens, UniProt P07550); assay: Binding affinity to beta 2 adrenergic receptor
Sequence of Beta-2 adrenergic receptor (P07550 whole entry): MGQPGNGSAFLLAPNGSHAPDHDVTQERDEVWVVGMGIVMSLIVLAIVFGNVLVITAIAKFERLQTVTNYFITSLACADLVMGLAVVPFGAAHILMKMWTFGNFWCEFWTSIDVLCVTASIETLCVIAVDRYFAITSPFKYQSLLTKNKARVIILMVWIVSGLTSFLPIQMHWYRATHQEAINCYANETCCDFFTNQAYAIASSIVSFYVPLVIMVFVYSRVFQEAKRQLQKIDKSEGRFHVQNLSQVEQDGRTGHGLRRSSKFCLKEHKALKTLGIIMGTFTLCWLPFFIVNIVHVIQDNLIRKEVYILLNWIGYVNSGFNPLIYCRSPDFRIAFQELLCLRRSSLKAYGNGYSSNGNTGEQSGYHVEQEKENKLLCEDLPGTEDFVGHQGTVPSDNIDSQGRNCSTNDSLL

[7] = target: T3, 5-hydroxytryptamine receptor 2C (Homo sapiens, UniProt P28335); assay: Binding affinity at 5HT2C receptor
T3 sequence (P28335 whole entry): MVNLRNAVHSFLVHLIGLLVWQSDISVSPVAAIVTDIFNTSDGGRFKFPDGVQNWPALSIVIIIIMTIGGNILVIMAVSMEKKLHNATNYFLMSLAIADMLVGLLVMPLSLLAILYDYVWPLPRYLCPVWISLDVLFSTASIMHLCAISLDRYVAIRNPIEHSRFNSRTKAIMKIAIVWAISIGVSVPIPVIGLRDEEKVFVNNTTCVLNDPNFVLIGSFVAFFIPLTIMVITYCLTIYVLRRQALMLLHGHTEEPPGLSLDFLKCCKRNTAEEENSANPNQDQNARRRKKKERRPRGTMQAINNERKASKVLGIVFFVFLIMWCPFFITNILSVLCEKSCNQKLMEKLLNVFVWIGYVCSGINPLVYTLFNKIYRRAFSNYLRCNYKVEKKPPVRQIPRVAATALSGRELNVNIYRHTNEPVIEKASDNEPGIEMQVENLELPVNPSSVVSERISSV

[8] = target: Cytochrome P450 3A4 (Homo sapiens) (UniProt P08684); assay: Inhibition of CYP3A4
Sequence of Cytochrome P450 3A4 (Homo sapiens) (P08684 whole entry, looked up): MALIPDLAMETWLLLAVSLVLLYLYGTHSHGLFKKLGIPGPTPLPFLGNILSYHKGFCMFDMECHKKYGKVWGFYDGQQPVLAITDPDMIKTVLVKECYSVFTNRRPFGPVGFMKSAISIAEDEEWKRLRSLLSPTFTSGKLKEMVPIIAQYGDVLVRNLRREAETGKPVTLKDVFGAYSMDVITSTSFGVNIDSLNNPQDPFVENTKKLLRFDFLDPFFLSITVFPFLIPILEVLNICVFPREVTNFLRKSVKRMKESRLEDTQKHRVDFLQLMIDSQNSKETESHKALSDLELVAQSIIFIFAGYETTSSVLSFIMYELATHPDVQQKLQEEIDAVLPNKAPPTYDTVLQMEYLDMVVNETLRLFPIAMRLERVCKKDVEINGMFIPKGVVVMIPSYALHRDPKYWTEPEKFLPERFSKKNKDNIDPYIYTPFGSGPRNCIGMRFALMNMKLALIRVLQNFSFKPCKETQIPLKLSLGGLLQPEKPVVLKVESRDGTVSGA

[9] = target: Cytochrome P450 2D6 (Homo sapiens, UniProt P10635); assay: Inhibition of CYP2D6; type: ADME
Sequence of Cytochrome P450 2D6 (P10635 whole entry): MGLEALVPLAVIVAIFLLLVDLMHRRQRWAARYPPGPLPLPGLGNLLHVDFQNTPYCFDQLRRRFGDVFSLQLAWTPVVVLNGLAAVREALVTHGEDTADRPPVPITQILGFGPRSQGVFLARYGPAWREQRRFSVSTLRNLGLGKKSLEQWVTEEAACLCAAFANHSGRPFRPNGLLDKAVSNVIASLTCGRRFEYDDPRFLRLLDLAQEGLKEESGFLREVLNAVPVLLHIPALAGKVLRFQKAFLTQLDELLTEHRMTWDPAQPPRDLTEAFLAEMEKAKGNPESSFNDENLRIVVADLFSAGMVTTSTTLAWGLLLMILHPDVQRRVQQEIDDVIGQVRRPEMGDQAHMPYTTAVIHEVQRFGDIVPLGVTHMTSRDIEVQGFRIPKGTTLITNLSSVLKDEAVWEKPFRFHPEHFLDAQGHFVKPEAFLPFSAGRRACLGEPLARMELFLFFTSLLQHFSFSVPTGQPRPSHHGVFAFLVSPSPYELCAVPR

[10] = target: 5-hydroxytryptamine receptor 2B (Homo sapiens, UniProt P41595); assay: Binding affinity at 5HT2B receptor
Sequence of 5-hydroxytryptamine receptor 2B (P41595 whole entry): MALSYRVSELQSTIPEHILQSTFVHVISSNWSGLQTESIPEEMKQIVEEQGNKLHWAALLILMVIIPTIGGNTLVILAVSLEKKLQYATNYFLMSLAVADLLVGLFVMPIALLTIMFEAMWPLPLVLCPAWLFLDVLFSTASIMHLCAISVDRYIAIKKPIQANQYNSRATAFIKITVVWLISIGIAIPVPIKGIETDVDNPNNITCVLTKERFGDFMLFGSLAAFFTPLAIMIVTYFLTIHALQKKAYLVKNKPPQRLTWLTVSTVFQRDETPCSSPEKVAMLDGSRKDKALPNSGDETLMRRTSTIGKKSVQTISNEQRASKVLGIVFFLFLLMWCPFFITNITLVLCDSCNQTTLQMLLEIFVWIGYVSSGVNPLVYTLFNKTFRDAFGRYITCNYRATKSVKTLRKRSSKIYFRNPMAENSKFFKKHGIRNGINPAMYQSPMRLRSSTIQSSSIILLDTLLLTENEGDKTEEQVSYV

[11] = target: T4, 5-hydroxytryptamine receptor 1F (Homo sapiens, UniProt P30939); assay: Binding affinity to 5HT1F receptor
T4 sequence (P30939 whole entry): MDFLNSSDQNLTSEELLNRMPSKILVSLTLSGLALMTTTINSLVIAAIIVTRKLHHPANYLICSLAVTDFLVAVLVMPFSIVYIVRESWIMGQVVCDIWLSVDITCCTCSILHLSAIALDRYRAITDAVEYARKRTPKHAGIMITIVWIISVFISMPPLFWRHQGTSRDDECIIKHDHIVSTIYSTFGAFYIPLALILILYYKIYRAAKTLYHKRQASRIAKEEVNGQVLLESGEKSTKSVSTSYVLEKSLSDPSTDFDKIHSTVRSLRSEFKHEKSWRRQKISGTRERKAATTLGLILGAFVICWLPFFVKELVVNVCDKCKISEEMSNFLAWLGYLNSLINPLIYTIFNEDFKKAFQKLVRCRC

[12] = target: 5-hydroxytryptamine receptor 1D (Homo sapiens, UniProt P28221); assay: Binding affinity to 5HT1D receptor
Sequence of 5-hydroxytryptamine receptor 1D (P28221 whole entry): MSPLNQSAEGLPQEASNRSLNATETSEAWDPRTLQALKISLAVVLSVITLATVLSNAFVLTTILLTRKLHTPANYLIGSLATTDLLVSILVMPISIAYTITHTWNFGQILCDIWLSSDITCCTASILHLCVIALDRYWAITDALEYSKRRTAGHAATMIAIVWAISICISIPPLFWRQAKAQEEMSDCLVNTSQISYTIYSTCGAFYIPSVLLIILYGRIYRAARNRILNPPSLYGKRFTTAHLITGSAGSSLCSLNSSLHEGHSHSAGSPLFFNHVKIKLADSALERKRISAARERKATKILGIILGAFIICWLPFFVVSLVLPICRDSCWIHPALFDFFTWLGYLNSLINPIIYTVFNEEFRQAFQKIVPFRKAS

[13] = target: D(2) dopamine receptor (Homo sapiens, UniProt P14416); assay: Binding affinity to dopamine D2 receptor
Sequence of D(2) dopamine receptor (P14416 whole entry): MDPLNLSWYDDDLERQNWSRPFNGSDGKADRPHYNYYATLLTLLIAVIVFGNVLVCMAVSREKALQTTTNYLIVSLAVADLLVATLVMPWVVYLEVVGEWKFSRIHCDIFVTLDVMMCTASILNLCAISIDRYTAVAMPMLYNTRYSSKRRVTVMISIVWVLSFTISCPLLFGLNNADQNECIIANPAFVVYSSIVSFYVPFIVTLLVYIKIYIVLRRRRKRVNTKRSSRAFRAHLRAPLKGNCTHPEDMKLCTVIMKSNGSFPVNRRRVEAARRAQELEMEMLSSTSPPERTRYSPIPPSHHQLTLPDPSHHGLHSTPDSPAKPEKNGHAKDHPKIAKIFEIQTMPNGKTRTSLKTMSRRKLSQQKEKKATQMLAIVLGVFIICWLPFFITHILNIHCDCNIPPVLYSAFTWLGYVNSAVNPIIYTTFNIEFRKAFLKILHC

Ki [1] [nM]	SMILES	other results
110	CC(C)C[C@H](NC(=O)c1cc2ccccc2s1)C(=O)N[C@H]1CCN(Cc2ccc(OCCCN(C)C)cc2)C1	–
320	CN(C)CCCOc1ccc(CN2CC[C@H](NC(=O)c3ccc(Br)cc3)C2)cc1	–
–	CN(C)CCCOc1ccc(CN2CC[C@H](NC(=O)c3ccc(Cl)c(Cl)c3)C2)cc1	IC50 [2]: 170 nM
3	CC(C)C[C@H](NC(=O)c1cc2ccccc2s1)C(=O)N[C@H]1CCN(Cc2ccc(OC3CCNCC3)c(Br)c2)C1	–
> 3000	CN(C)CCCOc1cccc(CN2CC[C@H](NC(=O)c3ccc(Cl)c(Cl)c3)C2)c1	–
> 10000	CN(C)CCCOc1ccccc1CN1CC[C@H](NC(=O)c2ccc(Cl)c(Cl)c2)C1	–
230	O=C(N[C@H]1CCN(Cc2ccc(OC3CCN(Cc4ccccc4)CC3)c(Br)c2)C1)c1ccc(Cl)c(Cl)c1	–
10	O=C(N[C@H]1CCN(CCc2ccc(OC3CCNCC3)c(Br)c2)C1)c1ccc(Cl)c(Cl)c1	–
42	O=C(N[C@H]1CCN(CCc2ccc(OC3CCNCC3)cc2)C1)c1ccc(Cl)c(Cl)c1	–
350	CN(C)CCCOc1ccc(CN2CC[C@@H](NC(=O)c3ccc(Br)cc3)C2)cc1	–
61	CN(C)CCCOc1ccc(CN2CC[C@H](NC(=O)c3ccc(Cl)c(Cl)c3)C2)cc1Br	–
1000	O=C(N[C@H]1CCN(Cc2ccc(OCCN3CCCC3)c(Br)c2)C1)c1ccc(Cl)c(Cl)c1	–
500	CN(C)CCCOc1ccc(CN2CCC(NC(=O)c3ccc(Cl)c(Cl)c3)CC2)cc1	–
> 10000	CN(C)CCCOc1ccc(CN(C)CCCNC(=O)c2ccc(Cl)c(Cl)c2)cc1	–
62	O=C(N[C@H]1CCN(CCc2ccc(OC3CCNCC3)c(F)c2)C1)c1ccc(Cl)c(Cl)c1	–
380	O=C(N[C@@H]1CCN(S(=O)(=O)c2ccc(OC3CCNCC3)c(Br)c2)C1)c1ccc(Cl)c(Cl)c1	–
69	O=C(N[C@H]1CCN(CCc2ccc(OC3CCNCC3)c([N+](=O)[O-])c2)C1)c1ccc(Cl)c(Cl)c1	–

Ki [1] [nM]	SMILES	other results
3500	O=C(N[C@H]1CCN(Cc2ccc(OCCN3CCOCC3)c(Br)c2)C1)c1ccc(Cl)c(Cl)c1	–
1500	O=C(N[C@H]1CCN(Cc2ccc(OCCN3CCNCC3)c(Br)c2)C1)c1ccc(Cl)c(Cl)c1	–
5.5	O=C(N[C@H]1CCN(Cc2ccc(O[C@@H]3CCNC3)c(Br)c2)C1)c1ccc(Cl)c(Cl)c1	–
140	O=C(NC1CCN(S(=O)(=O)c2ccc(OC3CCNCC3)c(Br)c2)CC1)c1ccc(Cl)c(Cl)c1	–
4	O=C(N[C@H]1CCN(Cc2ccc(OC3CCNCC3)c(Br)c2)C1)c1ccc(Cl)c(Cl)c1	Ki [3]: 4100 nM; Ki [4]: 38 nM; Ki [5]: > 10000 nM; IC50 [2]: 4 nM; Ki [6]: > 10000 nM; Ki [7]: 85 nM; IC50 [8]: 1900 nM; IC50 [9]: 2200 nM; Ki [10]: 140 nM; Ki [11]: 7200 nM; Ki [12]: 140 nM; Ki [13]: 100 nM
12	CC(C)C[C@H](NC(=O)c1cc2ccccc2s1)C(=O)N[C@H]1CCN(S(=O)(=O)c2ccc(OC3CCNCC3)c(Br)c2)C1	–
44	O=C(N[C@H]1CCN(Cc2ccc(O[C@H]3CCNC3)c(Br)c2)C1)c1ccc(Cl)c(Cl)c1	–
18	CC(C)C[C@H](NC(=O)c1cc2ccccc2s1)C(=O)N[C@H]1CCN(CCc2ccc(O[C@@H]3CCNC3)c(Br)c2)C1	–
120	O=C(N[C@H]1CCN(S(=O)(=O)c2ccc(OC3CCNCC3)c(Br)c2)C1)c1ccc(Cl)c(Cl)c1	–
> 10000	CN(C)CCCOc1ccc(CN2CCN(C(=O)c3ccc(Cl)c(Cl)c3)CC2)cc1	–
36	COc1cc(CCN2CC[C@H](NC(=O)c3ccc(Cl)c(Cl)c3)C2)ccc1OC1CCNCC1	–
15	O=C(N[C@H]1CCN(CCc2ccc(OC3CCNCC3)c(Cl)c2)C1)c1ccc(Cl)c(Cl)c1	–
47	CN1CCC(Oc2ccc(CN3CC[C@H](NC(=O)c4ccc(Cl)c(Cl)c4)C3)cc2Cl)C1 (mixture of isomers)	–
108	Cc1cc(CN2CC[C@H](NC(=O)c3ccc(Cl)c(Cl)c3)C2)ccc1OC1CCN(C)C1 (mixture of isomers)	–
41	CN1CCC(Oc2ccc(CN3CCC(NC(=O)c4ccc(Cl)c(Cl)c4)C3)cc2Br)C1 (racemic)	–
97	CN1CCC(Oc2ccc(CN3CCC(NC(=O)c4ccc(Cl)c(Cl)c4)C3)cc2)C1 (racemic)	–
71	O=C(NC1CCCCN(S(=O)(=O)c2ccc(OC3CCNCC3)c(Br)c2)C1)c1ccc(Cl)c(Cl)c1 (racemic)	–
